Values quoted from earlier work as cited in paper PMC3289745 (Peptides, 2011).

Tested on: conscious male rats
Conditions: central injection of neuronostatin; 30 minutes post-injection

Substance: neuronostatin
- increase in plasma AVP levels relative to saline-injected controls: 2–3 times
